Measurements published in the supplement of paper PMC4862054.

Tests used:
Conditions in all cases: incubation time: 72 h
[1] = tested on: BT-474; experiment: normalised response (% of control), CellTox Green; higher = less cell death (100 = DMSO, 0 = benzethonium chloride kill control)
How it was run: (§1)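 After 72 h with compound in 384-well plates, breast cancer cell lines seeded as 20 µl suspension were read for CellTox Green fluorescence at 485/520 nm. CellTiter-Glo luminescence was then read after 10 min at room temperature. Compound was present at 5 concentrations in 10-fold steps over a 10,000-fold range set per compound, and plates were normalised to 0.1 % DMSO (100) and a positive kill control (0). Values are normalised signals, each at a single concentration.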

[2] = tested on: BT-549; experiment: as above
How it was run: as §1

[3] = tested on: CAL-120; experiment: as above
How it was run: as §1

[4] = tested on: CAL-148; experiment: as above
How it was run: as §1

[5] = tested on: CAL-51; experiment: as above
How it was run: as §1

[6] = tested on: CAL-85-1; experiment: as above
How it was run: as §1

[7] = tested on: DU-4475; experiment: as above
How it was run: as §1

[8] = tested on: HCC1599; experiment: as above
How it was run: as §1

[9] = tested on: Hs578T; experiment: as above
How it was run: as §1

[10] = tested on: MCF-10A; experiment: as above
How it was run: as §1

[11] = tested on: MDA-MB-231; experiment: as above
How it was run: as §1

[12] = tested on: MDA-MB-436; experiment: as above
How it was run: as §1

[13] = tested on: MDA-MB-453; experiment: as above
How it was run: as §1

[14] = tested on: MDA-MB-468; experiment: as above
How it was run: as §1

[15] = tested on: MFM-223; experiment: as above
How it was run: as §1

[16] = tested on: BT-474; experiment: normalised response (% of control), CellTiter-Glo; higher = more viable cells (100 = DMSO, 0 = benzethonium chloride kill control)
How it was run: as §1

[17] = tested on: BT-549; experiment: as above
How it was run: as §1

[18] = tested on: CAL-120; experiment: as above
How it was run: as §1

[19] = tested on: CAL-148; experiment: as above
How it was run: as §1

[20] = tested on: CAL-51; experiment: as above
How it was run: as §1

[21] = tested on: CAL-85-1; experiment: as above
How it was run: as §1

[22] = tested on: DU-4475; experiment: as above
How it was run: as §1

[23] = tested on: HCC1143; experiment: as above
How it was run: as §1

[24] = tested on: HCC1599; experiment: as above
How it was run: as §1

[25] = tested on: HCC1937; experiment: as above
How it was run: as §1

[26] = tested on: HDQ-P1; experiment: as above
How it was run: as §1

[27] = tested on: Hs578T; experiment: as above
How it was run: as §1

[28] = tested on: MCF-10A; experiment: as above
How it was run: as §1

[29] = tested on: MDA-MB-231; experiment: as above
How it was run: as §1

[30] = tested on: MDA-MB-436; experiment: as above
How it was run: as §1

[31] = tested on: MDA-MB-453; experiment: as above
How it was run: as §1

[32] = tested on: MDA-MB-468; experiment: as above
How it was run: as §1

[33] = tested on: MFM-223; experiment: as above
How it was run: as §1

[34] = tested on: SK-BR-3; experiment: as above
How it was run: as §1

[35] = tested on: HCC1143; experiment: normalised response (% of control), CellTox Green; higher = less cell death (100 = DMSO, 0 = benzethonium chloride kill control)
How it was run: as §1

[36] = tested on: HDQ-P1; experiment: as above
How it was run: as §1

[37] = tested on: HCC1937; experiment: as above
How it was run: as §1

SMILES	normalised response [1] [%]	normalised response [2] [%]	normalised response [3] [%]	normalised response [4] [%]	normalised response [5] [%]	normalised response [6] [%]	normalised response [7] [%]	normalised response [8] [%]	normalised response [9] [%]	normalised response [10] [%]	normalised response [11] [%]	normalised response [12] [%]	normalised response [13] [%]	normalised response [14] [%]	normalised response [15] [%]	normalised response [16] [%]	normalised response [17] [%]	normalised response [18] [%]	normalised response [19] [%]	normalised response [20] [%]	normalised response [21] [%]	normalised response [22] [%]	normalised response [23] [%]	normalised response [24] [%]	normalised response [25] [%]	normalised response [26] [%]	normalised response [27] [%]	normalised response [28] [%]	normalised response [29] [%]	normalised response [30] [%]	normalised response [31] [%]	normalised response [32] [%]	normalised response [33] [%]	normalised response [34] [%]	normalised response [35] [%]	normalised response [36] [%]	normalised response [37] [%]
CC(C)(C)Cn1c(N)nc2ccc(-c3[nH]c(C(C)(C)C)nc3-c3ccc(F)cc3)nc21 (1000 nM)	101	111	81.1	99.9	94	90.7	105	84.3	80.6	77.7	110	78.8	101	113	99.5	101	93.7	96.6	93.1	103	104	94.8	98	111	93.6	94.6	97.7	89.7	100	102	92.8	93.4	97.9	97.7	–	–	–
Cn1cc(C[C@@H](N)C(=O)O)c2ccccc21 [1-methyl-D-tryptophan] (500 nM)	99.3	–	99.3	91.4	95.5	98.8	101	85.2	66.7	113	95.6	88.9	103	143	84.3	97.6	105	105	89.7	81.3	100	94.4	94.8	115	99.3	107	115	104	96.6	101	105	101	92.7	92.7	94.1	107	–
CC[C@H](CC#N)OC(=O)N[C@@H](C)c1cccc(NC(=O)Nc2ccc(-c3cnco3)c(OC)c2)c1 [AVN944] (1000 nM)	86.3	127	99.9	-21.7	63.5	97	88.2	85	32	112	81.8	74	90.3	131	44.7	58.7	36.3	59.9	34.3	24.1	40.8	29.2	42.3	48.1	52.7	46.1	44.4	58	53.5	42.7	84.4	37.5	71.3	51.3	56.6	98.8	76.8
CCc1cnn2c(NCc3ccc[n+]([O-])c3)cc(N3CCCC[C@H]3CCO)nc12 [Dinaciclib] (100 nM)	71	53.8	87.7	50.9	50.7	21.7	96.3	71.3	38	65	-7.86	105	100	-14.9	30.3	20.7	12.7	36.6	52.9	10.2	8.18	18.6	18.8	10.5	27.6	22.3	12.9	28.7	5.94	15.8	15.5	9.07	14.8	4.18	88.7	63.2	87.2
COc1cc(Nc2ncc(F)c(Nc3ccc4c(n3)N(COP(=O)(O)O)C(=O)C(C)(C)O4)n2)cc(OC)c1OC [Fostamatinib] (250 nM)	97.8	82.7	101	93.1	92.2	106	100	92.7	97.7	102	53.7	86.6	107	57	101	88.2	93.7	86.9	91.4	105	96.1	94.8	95	110	94.9	103	91.3	84	85	105	93.7	90.5	63.1	98.1	76.3	109	125
CC(C)NC[C@@H](C(=O)N1CCN(c2ncnc3c2[C@H](C)C[C@H]3O)CC1)c1ccc(Cl)cc1 [GDC-0068] (1000 nM)	74.3	90.5	99.3	34.3	89.6	113	102	93.2	101	74.4	106	113	97.8	95.5	86.1	89.5	70.2	81.4	19	60.5	85.8	91.9	89.3	103	79	65.5	85.4	82.8	92.4	89.1	53.6	60.9	31.7	67.2	121	105	115
CCCc1cc(C)[nH]c(=O)c1CNC(=O)c1cc(-c2ccnc(N3CCN(C)CC3)c2)cc2c1cnn2C(C)C [GSK343] (1000 nM)	97.9	107	96.1	98.2	82.5	98	94.6	91.5	73.9	107	106	79.6	97.6	183	–	103	92.9	95	77.9	73.8	101	89.5	95.3	95.9	103	103	101	96.4	97.3	99.1	80.4	87	90.7	83.6	98.9	72.7	121
COc1cc2c(cc1-c1c(C)noc1C)ncc1[nH]c(=O)n([C@H](C)c3ccccn3)c12 [I-BET151] (1000 nM)	97.2	93.6	91.8	–	89.2	83.8	94.7	97.9	79.2	109	123	99.7	106	117	101	77.8	57.5	71.2	101	87.4	57.4	82.9	87.3	97.3	79.5	82.9	52.6	74	85.7	94.7	68.4	86.3	72	82	105	–	42.4
CN1CCc2c(c3ccccc3n2Cc2ccc(C(=O)NO)cc2)C1 [Tubastatin A] (1000 nM)	99.2	99.6	102	104	91.3	111	105	93.7	81.9	110	98.7	106	105	131	101	91.7	101	93.3	103	53.5	94.7	96.5	94.3	104	92.9	87.9	101	112	91.7	97.5	92.4	90.8	96.9	100	–	94.3	98
